Laboratory results taken from the NIST ThermoML archive (doi:10.1016/j.tca.2012.12.004).

Test: molar heat capacity at constant pressure; xn = mol fraction of the nth substance listed
Conditions: 101 kPa, Crystal, Small (less than 1 g) adiabatic calorimetry, x1 = 0.7

[Ba+2].[F-].[F-] [barium difluoride] + [F][La]([F])[F]
Conditions	molar heat capacity at constant pressure [J/K/mol]
10 K	0.3566
15 K	1.198
20 K	2.757
25 K	4.992
30 K	7.683
35 K	10.6
40 K	13.58
45 K	16.57
50 K	19.51
60 K	25.25
70 K	30.71
80 K	35.83
90 K	40.57
100 K	44.9
110 K	48.81
120 K	52.33
130 K	55.47
140 K	58.27
150 K	60.76
160 K	62.98
170 K	64.95
180 K	66.7
190 K	68.28
200 K	69.68
210 K	70.94
220 K	72.07
230 K	73.09
240 K	74.02
250 K	74.85
260 K	75.6
270 K	76.29
280 K	76.91
290 K	77.48
298.15 K	77.91
300 K	78.01
310 K	78.48
320 K	78.93
330 K	79.33
340 K	79.7
